According to patent publication US4064169A, “Bis-(meta-amidinophenoxy)-compounds and pharmacologically acceptable acid addition salts thereof” (Eisai Co., Ltd., priority 1976, dated 1977):
Structures can show the parent of a compound that is named as a salt. Where two headings read alike, the source gives them in different places.

How the values were obtained:
Type in all cases: cell-based
[1] = test system: Candida albicans AHU 3656; experiment: Antifungal Test (agar dilution M.I.C.); conditions: for MIC: Candida albicans
Protocol: (§1) Respective agar plates were prepared by dissolving compounds under test in aseptic water to make a two fold dilution series, taking each 1 milliliter of said diluted solutions and 9 ml of Sabouraud medium into a petri dish, and sufficiently admixing the same.
(§2) On the other hand, an inoculum was prepared by cultivating an examined fungus (microorganism) on the Sabouraud slant medium and suspending two loopful of the incubated fungus in 10 ml of sterilized physiological saline water.
(§3) One loopful of the inoculum was streaked on the above-mentioned agar plate. After the agar plate was incubated at a defined temperature for a predetermined period of time to determine the minimal inhibitory concentration (M.I.C.).
(§4) Incubation temperature:
(§5) Incubation time: 3 days (72 hours) and
(§6) Incubation time: 3 days (72 hours)
(§7) activity incubation conditions:
(§8) Incubation time 3 days (72 hours)
(§9) Incubation time 7 days (168 hours)
(§10) Incubation time 2 days (48 hours)

[2] = test system: Candida albicans NAKAGAWA IFM 4017; experiment: Antifungal Test (agar dilution M.I.C.); conditions: Candida albicans
Protocol: as §1, §2, §3, §4, §5, §6, §7, §8, §9, §10

[3] = test system: Candida albicans Yu-1200 IFM 4020; experiment: Antifungal Test (agar dilution M.I.C.); conditions: Candida albicans
Protocol: as §1, §2, §3, §4, §5, §6, §7, §8, §9, §10

[4] = test system: Candida albicans IFM 4080; experiment: Antifungal Test (agar dilution M.I.C.); conditions: for MIC: Candida albicans
Protocol: as §1, §2, §3, §4, §5, §7, §8, §9, §10

[5] = test system: Candida albicans AHU 3656; experiment: Antifungal test when a serum is added; conditions: 27° C, read-out: M.I.C. of serum added
Protocol: as §1, §2, §3
(§11) Minimal inhibitory concentration (M.I.C.) was determined by preparing the agar plate medium in the same manner of the preceding pharmacological test 1, except for the addition of the horse serum. The concentration of the component in the medium was finally corrected, so that it may amount to the concentration of the component when the horse serum was not added.
(§12) Incubation temperature: […]

[6] = test system: Candida albicans IFM 4080; experiment: Antifungal test when a serum is added; conditions: 27° C, read-out: M.I.C. of serum added
Protocol: as §1, §2, §3, §11, §12

[7] = test system: Candida albicans NAKAGAWA IFM 4017; experiment: Antifungal test when a serum is added; conditions: 27° C, read-out: M.I.C. of serum added
Protocol: as §1, §2, §3, §11, §12

[8] = test system: Candida albicans Yu-1200 IFM 4020; experiment: Antifungal test when a serum is added; conditions: 27° C, read-out: M.I.C. of serum added
Protocol: as §1, §2, §3, §11, §12

[9] = test system: Candida tropicalis AHU 3071; experiment: Antifungal test when a serum is added; conditions: 27° C, read-out: M.I.C. of serum added
Protocol: as §1, §2, §3, §11, §12

Candida utilis AHU 3053 = experiment: Antifungal test when a serum is added; conditions: Williopsis jadinii, 27° C, read-out: M.I.C. of serum added
Protocol: as §1, §2, §3, §11, §12

Cryptococcus neoformans = experiment: Antifungal test when a serum is added; conditions: 27° C, read-out: M.I.C. of serum added
Protocol: as §1, §2, §3, §11, §12

fungi of Table 4 = experiment: Antifungal test when a serum is added (summary); conditions: 10% and 30% by volume horse serum
Protocol: as §11

[10] = test system: Staphylococcus aureus 209-P, Staphylococcus aureus 13-6 and Streptococcus pyogenes; experiment: Antibacterial Test (summary); conditions: 37° C., 18 hours; read-out: minimal inhibitory concentration
Protocol: (§13) A compound under test was dissolved in aseptic water to prepare a two fold dilution series. Each 1 milliliter of the solution was taken in a petri dish. Nine ml of infusion agar medium (Difco) was added to the solution, thereby preparing the agar plate for test. A pre-culture of each test strain in Tripticase soy broth medium (BBL) at 37° C. for 18 hours was streaked on the above-mentioned agar plate, and the said agar plate was incubated at 37° C. for 18 hours to determine the minimal inhibitory concentration (M.I.C.).

[11] = test system: gram-negative bacteria such as Escherichia coli NIHJ and Escherichia coli E-15; experiment: Antibacterial Test (summary); conditions: 18 h, 37° C., read-out: minimal inhibitory concentration
Protocol: as §13

[12] = test system: yeast-like fungi such as Candida, Cryptococcus; experiment: Antifungal Test (summary)
Protocol: as §1, §2, §3

[13] = Table 1, 27° C., 3 days incubation
[14] = Table 1, 27° C., 7 days incubation
[15] = 168 h, 10 % horse serum, 7 days
[16] = 168 h, 30 % horse serum, 7 days

## N=C(N)c1cccc(OCC2CCC(COc3cccc(C(=N)N)c3)CC2)c1 (stereo not drawn) [Compound A, 1,4-Bis-(m,m'-amidinophenoxymethyl)-cyclohexane-dihydrochloride]
[1]; AHU3656, 48 h, Table 3, 37° C., 2 days
  MIC: 3.13 µg/mL
[1]; AHU3656, 72 h, Table 3, 27° C., 3 days
  MIC: 3.13 µg/mL
[1]; AHU3656, 168 h, Table 3, 27° C., 7 days
  MIC: 6.25 µg/mL
[1]; [13]
  M.I.C.: 3.13 µg/mL
[1]; [14]
  M.I.C.: 6.25 µg/mL
[1]; Table 2, 37° C., 3 days (72 hours)
  M.I.C.: 3.13 µg/mL
[1]; Table 3, 37° C., 3 days
  M.I.C.: 3.13 µg/mL
[2]; 48 h, Table 3, 37° C., 2 days
  MIC: 0.8 µg/mL
[2]; 72 h, Table 1, 27° C., 3 days incubation
  MIC: 3.13 µg/mL
[2]; 72 h, Table 2, 37° C., 3 days (72 hours)
  MIC: 1.56 µg/mL
[2]; 72 h, Table 3, 27° C., 3 days
  MIC: 3.13 µg/mL
[2]; 72 h, Table 3, 37° C., 3 days
  MIC: 1.56 µg/mL
[2]; 168 h, Table 1, 27° C., 7 days incubation
  MIC: 3.13 µg/mL
[2]; 168 h, Table 3, 27° C., 7 days
  MIC: 3.13 µg/mL
[3]; YU1200IFM4020, 48 h, Table 3, 37° C., 2 days
  MIC: 0.8 µg/mL
[3]; YU1200IFM4020, 72 h, Table 1, 27° C., 3 days incubation
  MIC: < 1.56 µg/mL
[3]; YU1200IFM4020, 72 h, Table 2, 37° C., 3 days (72 hours)
  MIC: 0.8 µg/mL
[3]; YU1200IFM4020, 72 h, Table 3, 27° C., 3 days
  MIC: 1.56 µg/mL
[3]; YU1200IFM4020, 72 h, Table 3, 37° C., 3 days
  MIC: 0.8 µg/mL
[3]; YU1200IFM4020, 168 h, Table 1, 27° C., 7 days incubation
  MIC: 3.13 µg/mL
[3]; YU1200IFM4020, 168 h, Table 3, 27° C., 7 days
  MIC: 3.13 µg/mL
[4]; IFM4080, 48 h, Table 3, 37° C., 2 days
  MIC: 0.8 µg/mL
[4]; IFM4080, 72 h, Table 3, 27° C., 3 days
  MIC: 3.13 µg/mL
[4]; IFM4080, 168 h, Table 3, 27° C., 7 days
  MIC: 6.25 µg/mL
[4]; [13]
  M.I.C.: 3.13 µg/mL
[4]; [14]
  M.I.C.: 6.25 µg/mL
[4]; Table 3, 37° C., 3 days
  M.I.C.: 3.13 µg/mL
[5]; AHU3656, 72 h, 0 % horse serum, 3 days
  MIC: 3.13 µg/mL
[5]; AHU3656, 72 h, 10 % horse serum, 3 days
  MIC: 25 µg/mL
[5]; AHU3656, 72 h, 30 % horse serum, 3 days
  MIC: 25 µg/mL
[5]; AHU3656, 168 h, 0 % horse serum, 7 days
  MIC: 6.25 µg/mL
[5]; AHU3656, 168 h, 10 % horse serum, 7 days
  MIC: 25 µg/mL
[5]; AHU3656, 168 h, 30 % horse serum, 7 days
  MIC: 25 µg/mL
[6]; IFM4080, 72 h, 0 % horse serum, 3 days
  MIC: 3.13 µg/mL
[6]; IFM4080, 72 h, 10 % horse serum, 3 days
  MIC: 12.5 µg/mL
[6]; IFM4080, 72 h, 30 % horse serum, 3 days
  MIC: 12.5 µg/mL
[6]; IFM4080, 168 h, 0 % horse serum, 7 days
  MIC: 6.25 µg/mL
[6]; IFM4080, 168 h, 10 % horse serum, 7 days
  MIC: 12.5 µg/mL
[6]; IFM4080, 168 h, 30 % horse serum, 7 days
  MIC: 12.5 µg/mL
[7]; 72 h, 0 % horse serum, 3 days
  MIC: 3.13 µg/mL
[7]; 72 h, 10 % horse serum, 3 days
  MIC: 25 µg/mL
[7]; 72 h, 30 % horse serum, 3 days
  MIC: 6.25 µg/mL
[7]; 168 h, 0 % horse serum, 7 days
  MIC: 3.13 µg/mL
[7]; [15]
  MIC: 25 µg/mL
[7]; [16]
  MIC: 6.2 µg/mL
[8]; YU1200IFM4020, 72 h, 0 % horse serum, 3 days
  MIC: < 1.56 µg/mL
[8]; YU1200IFM4020, 72 h, 10 % horse serum, 3 days
  MIC: 6.25 µg/mL
[8]; YU1200IFM4020, 72 h, 30 % horse serum, 3 days
  MIC: 25 µg/mL
[8]; YU1200IFM4020, 168 h, 0 % horse serum, 7 days
  MIC: 3.13 µg/mL
[8]; YU1200IFM4020, 168 h, 10 % horse serum, 7 days
  MIC: 6.25 µg/mL
[8]; YU1200IFM4020, 168 h, 30 % horse serum, 7 days
  MIC: 25 µg/mL
[9]; AHU3071, 72 h, 0 % horse serum, 3 days
  MIC: 3.13 µg/mL
[9]; AHU3071, 72 h, 10 % horse serum, 3 days
  MIC: 6.25 µg/mL
[9]; AHU3071, 72 h, 30 % horse serum, 3 days
  MIC: 12.5 µg/mL
[9]; AHU3071, 168 h, 0 % horse serum, 7 days
  MIC: 3.13 µg/mL
[9]; AHU3071, 168 h, 10 % horse serum, 7 days
  MIC: 6.25 µg/mL
[9]; AHU3071, 168 h, 30 % horse serum, 7 days
  MIC: 12.5 µg/mL
Candida utilis AHU 3053; AHU3053, 72 h, 0 % horse serum, 3 days
  MIC: 3.13 µg/mL
Candida utilis AHU 3053; AHU3053, 72 h, 10 % horse serum, 3 days
  MIC: 3.13 µg/mL
Candida utilis AHU 3053; AHU3053, 72 h, 30 % horse serum, 3 days
  MIC: < 0.8 µg/mL
Candida utilis AHU 3053; AHU3053, 168 h, 0 % horse serum, 7 days
  MIC: 3.13 µg/mL
Candida utilis AHU 3053; AHU3053, 168 h, 10 % horse serum, 7 days
  MIC: 6.25 µg/mL
Candida utilis AHU 3053; AHU3053, 168 h, 30 % horse serum, 7 days
  MIC: < 0.8 µg/mL
Cryptococcus neoformans; 72 h, 0 % horse serum, 3 days
  MIC: 3.13 µg/mL
Cryptococcus neoformans; 72 h, 10 % horse serum, 3 days
  MIC: 6.25 µg/mL
Cryptococcus neoformans; 72 h, 30 % horse serum, 3 days
  MIC: 12.5 µg/mL
Cryptococcus neoformans; 168 h, 0 % horse serum, 7 days
  MIC: 3.13 µg/mL
Cryptococcus neoformans; [15]
  MIC: 12.5 µg/mL
Cryptococcus neoformans; [16]
  MIC: 12.5 µg/mL
Fungi of Table 4
  antifungal activity with serum compared with no serum: nearly same as that when the horse serum was not added
  difference of antifungal activity with vs without horse serum: 1 - 2 dilution step(s)
[10]
  MIC: 3.13 to 6.25 µg/mL
[11]
  MIC: 100 to 200 µg/mL
[12]
  antifungal activity: excellent antifungal activity
[12]; 27° C. and 37° C.
  influence of incubation temperature on antifungal activity: not influenced by the incubation temperature
